Measurements reported in publication PMC12302339 (Journal of Advanced Research, 2024).
Converted amounts (≈) assume the structure as drawn.

How the values were obtained:
p42 = assay type: binding, Xanthomonas oryzae pv. oryzae
in vivo = settings: Brachydanio rerio (zebrafish)
[1] = system: A549, human non-small cell lung cancer cells; experiment: cells; assay type: cell-based
rice = settings: in vivo

For `C#CCNc1ncnc2ccccc12` [NP, N-(prop-2-yn-1-yl)quinazolin-4-amine], the “proteome labeling in situ or in vitro” value (p42) was “failed to label any proteins”.
In the case of `C#CCN(C(=O)C=C)c1ncnc2ccc(Br)cc12` [probe P1, N-(6-bromoquinazolin-4-yl)-N-(prop-2-yn-1-yl)acrylamide], the “proteome labeling in situ or in vitro” value (p42) is reported as “prominent labeling”, the “time after which p42 was visualized” value (p42) is reported as 5 min and the “time to complete labeling of p42” value (p42) is reported as 2 h.
Work on `C=CC(=O)Nc1ncnc2ccc(Br)cc12` [compound 7a, N-(6-bromoquinazolin-4-yl)acrylamide] yielded an LC50 at 48 h (in vivo) of 0.53 µg/mL (≈ 1.91 µM), an LC50 at 72 h (in vivo) of 0.48 µg/mL (≈ 1.73 µM) and an LC50 at 96 h (in vivo) of 0.48 µg/mL (≈ 1.73 µM). The IC50 [1] was 23.1 µM, the “phytotoxicity on rice leaves” value (rice) was “no signs of damage” and the “competition of probe P1 labeling of p42” value (p42) was “dose-dependently competed”.
`O=c1[nH]cc(F)c(=O)[nH]1` [5-FU, 5-fluorouracil, reference compound] showed an IC50 [1] of 1.42 µM.
